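The compound was tested at five concentrations on cells cultured in 96-well plates, with a 48-hour exposure period. GI50: concentration for 50% inhibition of growth.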 Calls of active or inactive are those of the source. No stated cut-off is given here; in the data, active = GI50 up to about 1.1 µM and inactive = higher.
How the values were obtained:
Test in all cases: NCI-60 cell line screen, 48 h
[1] = system: M14
[2] = system: ACHN
[3] = system: MDA-MB-435
[4] = system: KM12
[5] = system: OVCAR-8
[6] = system: Hs-578T
[7] = system: MOLT-4
[8] = system: OVCAR-4
[9] = system: T47D
[10] = system: NCI-H226
[11] = system: RPMI-8226
[12] = system: NCI-H460
[13] = system: SF-268
[14] = system: DU-145
[15] = system: SNB-75
[16] = system: IGROV-1
[17] = system: K562
[18] = system: 786-0
[19] = system: HOP-92
[20] = system: NCI-H23
[21] = system: COLO 205
[22] = system: HCT-15
[23] = system: HT-29
[24] = system: EKVX
[25] = system: MCF7
[26] = system: RXF 393
[27] = system: UACC-62
[28] = system: SR
[29] = system: MDA-MB-231
[30] = system: SF-539
[31] = system: U-251
[32] = system: HCC 2998
[33] = system: CCRF-CEM
[34] = system: HL-60
[35] = system: HOP-62
[36] = system: SK-MEL-28
[37] = system: UACC-257
[38] = system: A549
[39] = system: Malme-3M
[40] = system: SF-295
[41] = system: SW-620
[42] = system: UO-31
[43] = system: HCT-116
[44] = system: SK-OV-3
[45] = system: SK-MEL-5
[46] = system: OVCAR-5
[47] = system: SNB-19
[48] = system: SN12C
[49] = system: NCI/ADR-RES
[50] = system: TK-10
[51] = system: NCI-H522
[52] = system: OVCAR-3
[53] = system: SK-MEL-2
[54] = system: MDA-N
[55] = system: CAKI-1
[56] = system: PC-3
[57] = system: LOX IMVI

## O=CNNC(=O)Nc1cccc2ccccc12
[1]
  GI50: > 100 µM (inactive)
[2]
  GI50: > 100 µM (inactive)
[3]
  GI50: > 100 µM (inactive)
[4]
  GI50: > 100 µM (inactive)
[5]
  GI50: > 100 µM (inactive)
[6]
  GI50: > 100 µM (inactive)
[7]
  GI50: > 100 µM (inactive)
[8]
  GI50: > 100 µM (inactive)
[9]
  GI50: > 100 µM (inactive)
[10]
  GI50: 67.1 µM (inactive)
[11]
  GI50: > 100 µM (inactive)
[12]
  GI50: > 100 µM (inactive)
[13]
  GI50: > 100 µM (inactive)
[14]
  GI50: > 100 µM (inactive)
[15]
  GI50: > 100 µM (inactive)
[16]
  GI50: > 100 µM (inactive)
[17]
  GI50: > 100 µM (inactive)
[18]
  GI50: > 100 µM (inactive)
[19]
  GI50: > 10 µM (inactive)
[20]
  GI50: > 100 µM (inactive)
[21]
  GI50: > 100 µM (inactive)
[22]
  GI50: > 100 µM
[23]
  GI50: > 100 µM (inactive)
[24]
  GI50: > 100 µM (inactive)
[25]
  GI50: > 100 µM (inactive)
[26]
  GI50: > 100 µM (inactive)
[27]
  GI50: > 100 µM (inactive)
[28]
  GI50: > 100 µM (inactive)
[29]
  GI50: > 100 µM (inactive)
[30]
  GI50: > 100 µM (inactive)
[31]
  GI50: > 100 µM (inactive)
[32]
  GI50: > 100 µM (inactive)
[33]
  GI50: > 100 µM (inactive)
[34]
  GI50: > 100 µM (inactive)
[35]
  GI50: > 100 µM (inactive)
[36]
  GI50: > 100 µM (inactive)
[37]
  GI50: > 100 µM (inactive)
[38]
  GI50: > 100 µM (inactive)
[39]
  GI50: > 100 µM (inactive)
[40]
  GI50: > 100 µM (inactive)
[41]
  GI50: > 100 µM (inactive)
[42]
  GI50: > 100 µM (inactive)
[43]
  GI50: > 100 µM (inactive)
[44]
  GI50: > 100 µM (inactive)
[45]
  GI50: > 100 µM (inactive)
[46]
  GI50: > 100 µM (inactive)
[47]
  GI50: > 100 µM (inactive)
[48]
  GI50: > 100 µM (inactive)
[49]
  GI50: > 100 µM (inactive)
[50]
  GI50: > 100 µM (inactive)

## Cc1ccc(-c2ccc(Nc3c4ccccc4nc4ccccc34)cc2)cn1
[1]
  GI50: 2.95 µM (inactive)
[2]
  GI50: 2.32 µM (inactive)
[3]
  GI50: 4.43 µM (inactive)
[4]
  GI50: 3.8 µM (inactive)
[5]
  GI50: 4.81 µM (inactive)
[6]
  GI50: 5 µM (inactive)
[51]
  GI50: 2.83 µM (inactive)
[7]
  GI50: 1.03 µM (active)
[9]
  GI50: 2.17 µM (inactive)
[11]
  GI50: 1.92 µM (inactive)
[12]
  GI50: 1.44 µM (inactive)
[13]
  GI50: 8.75 µM (inactive)
[14]
  GI50: 3.77 µM (inactive)
[52]
  GI50: 2.63 µM (inactive)
[16]
  GI50: 5.43 µM (inactive)
[17]
  GI50: 3.66 µM (inactive)
[53]
  GI50: 1.87 µM (inactive)
[18]
  GI50: 1.66 µM (inactive)
[19]
  GI50: 0.322 µM (active)
[20]
  GI50: 4.66 µM (inactive)
[21]
  GI50: 3.37 µM (inactive)
[22]
  GI50: 3.75 µM
[54]
  GI50: 6.07 µM (inactive)
[55]
  GI50: 2.72 µM (inactive)
[23]
  GI50: 2.13 µM (inactive)
[24]
  GI50: 6.64 µM (inactive)
[25]
  GI50: 2.26 µM (inactive)
[27]
  GI50: 3.08 µM (inactive)
[28]
  GI50: 2.07 µM (inactive)
[30]
  GI50: 3.85 µM (inactive)
[32]
  GI50: 29 µM (inactive)
[35]
  GI50: 1.82 µM (inactive)
[36]
  GI50: 2.51 µM (inactive)
[37]
  GI50: 7.13 µM (inactive)
[38]
  GI50: 2.3 µM (inactive)
[40]
  GI50: 2.37 µM (inactive)
[56]
  GI50: 4.97 µM (inactive)
[41]
  GI50: 4.01 µM (inactive)
[42]
  GI50: 3.13 µM (inactive)
[43]
  GI50: 2.91 µM (inactive)
[45]
  GI50: 4.41 µM (inactive)
[46]
  GI50: 19.5 µM (inactive)
[47]
  GI50: 5.86 µM (inactive)
[57]
  GI50: 2.71 µM (inactive)
[48]
  GI50: 3.89 µM (inactive)
[49]
  GI50: 8.89 µM (inactive)
[50]
  GI50: 9.14 µM (inactive)

Source: ChEMBL document CHEMBL1201862, “PubChem BioAssay data set” (2004)
